Where two headings read alike, the source gives them in different places.
Experiments:
[1] = Pharmacokinetic study in rat; type: in vivo, Sprague-Dawley rat
Procedure: In the IV bolus study, 1 mg/kg doses prepared in 0.4% HPBCD in saline were administered via foot dorsal vein injection. At each timepoint, 150 μL of blood was collected via tail vein into EDTA-K2 tubes. The blood samples were maintained in wet ice initially and centrifuged to obtain plasma (2000 g, 4° C., 5 minutes) within 15 minutes post sampling. In the PO study, doses prepared in 10% Ethanol:5% Solutol HS15:85% (5% of dextrose in water) were administered by oral gavage. Samples were collected as described above. In the IV infusion study, doses were prepared in 10% PEG400 in 0.9% saline and administered into the femoral vein, at a dose of 4.7 mg/kg/day for 7 days. 500 μL of blood was collected by jugular venipuncture at timepoints over 7 days and placed on crushed wet ice until centrifugation, which was carried out as soon as practical. The samples were centrifuged for 10 minutes at 4° C. at 2700 rpm. The resultant plasma was separated and frozen immediately over dry ice for LC-MS/MS analysis. […] Typically, samples were injected onto an LC-MS/MS system using a Waters BEH Phenyl column. The aqueous mobile phase was water with 0.1% NH4OH (A), and the organic mobile phase was acetonitrile with 0.1% NH4OH (B). The gradient was as follows: 37% B for the first 0.2 min, increased to 44% B from 0.2 to 0.6 min, maintained at 44% B for 0.5 min, and decreased to 37% B within 0.05 min. The injection volume was 2 uL, and the total run time was 1.5 min with a flow rate of 0.6 mL/min. […] The ionization was conducted in the positive ion mode using the MRM transition [M+H]+m/z 563.5 parent ion to m/z 326.3 daughter ion, incorporating a turbo-ionspray interface. Eight to ten calibration standards were prepared in blank plasma of the relevant species providing a typical standard curve concentration range of 5-500 ng/mL. Pharmacokinetic parameters were calculated by noncompartmental methods using WinNonlin (version 5.3; Pharsight, St. Louis, Mo.). Parameters are presented as mean±S.D.

[2] = Liver microsome stability, rat; type: in vitro ADME
Procedure: (§1) The final incubation volume was 50 μL. Control incubations were included for each species where 0.1 M phosphate buffer pH 7.4 was added instead of NADPH (minus NADPH). Two control compounds were included for each species. […] The control (minus NADPH) was incubated for 45 minutes only. The reactions were stopped by transferring 25 μL of incubate to 50 μL methanol at the appropriate time points. The incubation plates were centrifuged at 2,500 rpm for 20 minutes at 4° C. to aid protein precipitation. Experimental half-lives were transformed to the corresponding intrinsic clearance values and subsequently scaled to predicted in vivo clearance values, using the well-stirred model as previously described (Houston, Biochemical Pharmacology 47(9): 1469-1479, 1994; Obach, Drug Metabolism and Disposition 27(11): 1350-1359, 1999), with appropriate species-specific scaling factors (Barter et al., Current Drug Metabolism 8(1): 33-45, 2007).

[3] = Liver microsome stability, dog; type: in vitro ADME
Procedure: as §1

[4] = Hepatocyte stability, mouse; type: in vitro ADME, CD-1 mouse
Procedure: (§2) Human, Beagle dog, Sprague-Dawley rat, and CD-1 mouse cryopreserved hepatocytes were obtained from XenoTech and stored at −150° C. until use. The hepatocytes were thawed and prepared according to the vendor's instructions, pooled into Krebs Henseleit buffer (KHB, pH 7.4), and kept on ice prior to initiating an experiment. […] The reaction mixture was incubated in a shaking water bath at 37° C. Aliquots of the incubation solutions were sampled at 0, 15, 30, 60, and 120 minutes. The reaction was immediately terminated by the addition of three volumes of ice-cold acetonitrile containing 0.1% formic acid and internal standards. After centrifugation at 1640×g for 10 minutes, the supernatants were transferred into HPLC vials, and the test compound was analyzed by LC-MS/MS. Positive controls, testosterone (20 μM) and 7-hydroxycoumarin (100 μM), were performed in parallel to confirm the enzyme activities of the hepatocytes used.
(§3) Experimental half-lives were transformed to the corresponding intrinsic clearance values and subsequently scaled to predicted in vivo clearance values, using the well-stirred model as previously described (Houston, Biochemical Pharmacology 47(9): 1469-1479, 1994; Obach, Drug Metabolism and Disposition 27(11): 1350-1359, 1999), with appropriate species-specific scaling factors (Barter et al., Current Drug Metabolism 8(1): 33-45, 2007).

[5] = Hepatocyte stability, human; type: in vitro ADME
Procedure: as §2, §3

[6] = Plasma protein binding by equilibrium dialysis, dog; type: in vitro ADME; details: male, beagle, pH 7.4, read-out: Plasma free fraction
Procedure: Plasma protein binding was assessed by equilibrium dialysis, utilizing the HT-dialysis cell format with a cellulose semi permeable membrane (molecular weight cut off of 5000 Da). Plasma was warmed to 37° C. and adjusted to pH 7.4 before use. Male Sprague-Dawley rat, male Beagle dog, male CD-1 mouse and mixed sex human plasma was used for the studies. A 5 μM test compound solution was prepared in isotonic phosphate buffer and rat, dog, mouse and human plasma (final DMSO concentration of 0.5%). The plasma-containing solution was introduced to one side of the membrane, and the plasma-free on the other. Incubations were performed for 2-16 hours in duplicate in order to allow the compound to reach equilibrium. Haloperidol was included as the control compound for each species. At the end of the equilibration time the cells were emptied. Following protein precipitation, the samples were centrifuged and analyzed by LC-MS/MS. The samples from the protein containing compartment were quantified using calibration standards prepared in plasma and the protein free compartments were quantified using calibration standards prepared in dialysis buffer.

Plasma stability, human = type: in vitro ADME; details: pooled plasma, 37° C., read-out: Half-life in ex vivo blood plasma
Source text: Samples were quenched in methanol and analyzed by LC-MS/MS analysis.

[7] = male, Sprague-Dawley, plasma, SD rat, IV bolus, 1 mg/kg
[8] = male, Sprague-Dawley, plasma, SD rat, IV infusion, 4.7 mg/kg/day for 7 days
[9] = male, Sprague-Dawley, plasma, SD rat, PO, 10 mg/kg
[10] = liver microsomes, pH 7.4, NADPH, 3 μM

With `CC(C)N(C[C@H]1O[C@@H](n2cnc3c(N)ncnc32)[C@H](O)[C@@H]1O)[C@H]1C[C@@H](CCc2nc3cc(C(C)(C)C)ccc3[nH]2)C1` [Compound A, (2R,3R,4S,5R)-2-(6-amino-9H-purin-9-yl)-5-((((1r,3S)-3-(2-(5-(tert-butyl)-1H-benzo[d]imidazol-2-yl)ethyl)cyclobutyl)(isopropyl)amino)methyl)tetrahydrofuran-3,4-diol] the CL ([1]; SD rat, IV bolus, 1 mg/kg) was 67.8 ± 5.3 mL/min/kg, the t1/2 ([1]; SD rat, IV bolus, 1 mg/kg) was 3.73 ± 1.03 h and the “time to steady state” value ([1]; SD rat, IV infusion, 4.7 mg/kg/day) was at most 1 h. The F ([1]; SD rat, PO, 10 mg/kg) was under 1%, the AUC(0-inf) [1, 7] was 0.44 ± 0.03 µM·h and the AUC(0-t) [1, 7] was 0.43 ± 0.03 µM·h. The Cmax [1, 7] was 2040 ± 230 nM, the MRT [1, 7] was 0.41 ± 0.1 h and the Tmax [1, 7] was 0.05 h. The AUC(0-inf) [1, 8] was 12.5 µM·h, the AUC(0-t) [1, 8] was 12.5 µM·h and the Cmax [1, 8] was 130 nM. For the same molecule, the Tmax [1, 8] was 4 h, the concentration at 7 days ([1]; male, Sprague-Dawley, plasma, SD rat, IV infusion, 4.7 mg/kg/day for 7 days, read-out: average steady state concentration) was 78 nM and the Cmax [1, 9] was 0.7 nM. The Tmax [1, 9] was 0.25 h, the half-life ([1]; male, Sprague-Dawley, rat, plasma, iv, 1 mg/kg, SD rat, IV bolus) was 3.7 h and the clearance ([1]; male, Sprague-Dawley, rat, plasma, iv, 1 mg/kg, SD rat, IV bolus, 1 mg/kg, read-out: CL) was 68 mL/min/kg. It also gave a Vd ([1]; male, Sprague-Dawley, rat, plasma, iv, 1 mg/kg, SD rat, IV bolus, 1 mg/kg, read-out: VDss) of 1.66 L/kg, a Vd ([1]; male, Sprague-Dawley, rat, plasma, iv, 1 mg/kg, rat, read-out: Unbound VDss) of 6.1 L/kg and a clearance ([1]; male, Sprague-Dawley, rat, plasma, iv, 4.7 mg/kg/day, SD rat, IV infusion, 4.7 mg/kg/day, Css 78 nM, read-out: CL estimate from IV infusion (dose rate divided by Css)) of 74 mL/min/kg. The “oral bioavailability (in words)” value ([1]; rat, PO) was “low and negligible”, the microsomal CLint at 3 μM [2, 10] was 72 µL/min/mg and the “Scaled Hepatic CL from liver microsomes” value ([2]; well-stirred model) was 45 mL/min/kg. The microsomal CLint at 3 μM [3, 10] was 39 µL/min/mg, the “Scaled Hepatic CL from liver microsomes” value ([3]; well-stirred model) was 20 mL/min/kg and the hepatocyte CLint at 3 μM ([4]; CD-1, mouse, cryopreserved hepatocytes in suspension, pH 7.4, mouse, 3 μM) was under 4 µL/min/1e6 cells. The “Scaled Hepatic CL from hepatocytes” value ([4]; mouse) was 26 mL/min/kg, the “Hepatocyte CLint” value ([4]; mouse, 3 μM) was 3.5 uL/min/million cells and the “Scaled Hepatic CL from hepatocytes” value [5] was under 3 mL/min/kg. The fraction unbound at 5 μM [6] was 0.234 and the half-life at 1 μM (Plasma stability, human) was over 2 h.

From US20160368943A1, “SUBSTITUTED PURINE COMPOUNDS” (EPIZYME, INC., priority 2013, published 2016)
